From US5221606A, “Reagent and kit for enzyme assay comprising a substrate consonant with given enzyme to be assayed” (King's College London, priority 1987, dated 1993) come the findings set out here.

Structures can show the parent of a compound that is named as a salt.

The subject of one series is carboxyesterase. In words: substrate test with carboxyesterase. Format: biochemical. How it is done:
The serum samples were diluted by a factor of 10 prior to the assay. The substrate solution and the diluted sera were then preincubated at 37° C. in a water bath. Aliquots (0.75 ml) of the substrate solution were then pipetted into small plastic tubes (2 ml capacity), and 0.05 ml samples of the sera were added to each of the substrate aliquots and shaken vigorously to ensure adequate mixing. A blank was run by substituting water (0.05 ml) for the serum. The reaction was stopped after 10 min by the addition of the stopping buffer (0.25 ml) [prepared by dissolving DABCO (22.4 g) in water (200 ml) and adjusting the pH to 10 by the addition of a little conc. hydrochloric acid. The resulting mixture was then made up to 1000 ml with acetone]. […] [formula] where t=time of incubation in hours
Otherwise it was carried out in exactly the same ways as above

Series [1] can be described thus: solubility in water or aqueous buffer.
Series [2] has as its system N-acetyl-β-D-glucosaminidase (NAGase). In words: substrate test with N-acetyl-β-D-glucosaminidase. Format: biochemical. How it is done: METHOD. The MIXTURE A is dissolved in 10 ml of distilled water to give SOLUTION A. The solution should be allowed to stand in a thermostatically controlled bath at 37° C., and then 0.75 ml of the solution is added to a series of suitable tubes of 2 ml capacity. To these tubes is added, with vigorous stirring, […] aliquots of the urines under examination, and a blank is prepared by adding 0.05 ml of distilled water rather than urine to one of the tubes. The tubes are then incubate for a set length of time (preferably 30 min), after which 0.25 ml of the STOPPING BUFFER is added to each tube and the absorption (A) at 505 nm is determined for each sample, and adjusted for the value of the blank.
The enzyme activity of the enzyme in each sample is given by the expression using and εmax =42,000. [formula] where t=time of incubation in hours

The target of the next series is E. Coli β-galactosidase (Escherichia coli, UniProt P00722). The experiment in a line: substrate test with β-galactosidase. It counts as biochemical.
In the next series the test system is alkaline phosphatase. In words: substrate test with alkaline phosphatase. It counts as biochemical.
The mark [3] stands for this setting: E. coli β-galactosidase, unit inferred.

Chain of E. Coli β-galactosidase (P00722 2-1024): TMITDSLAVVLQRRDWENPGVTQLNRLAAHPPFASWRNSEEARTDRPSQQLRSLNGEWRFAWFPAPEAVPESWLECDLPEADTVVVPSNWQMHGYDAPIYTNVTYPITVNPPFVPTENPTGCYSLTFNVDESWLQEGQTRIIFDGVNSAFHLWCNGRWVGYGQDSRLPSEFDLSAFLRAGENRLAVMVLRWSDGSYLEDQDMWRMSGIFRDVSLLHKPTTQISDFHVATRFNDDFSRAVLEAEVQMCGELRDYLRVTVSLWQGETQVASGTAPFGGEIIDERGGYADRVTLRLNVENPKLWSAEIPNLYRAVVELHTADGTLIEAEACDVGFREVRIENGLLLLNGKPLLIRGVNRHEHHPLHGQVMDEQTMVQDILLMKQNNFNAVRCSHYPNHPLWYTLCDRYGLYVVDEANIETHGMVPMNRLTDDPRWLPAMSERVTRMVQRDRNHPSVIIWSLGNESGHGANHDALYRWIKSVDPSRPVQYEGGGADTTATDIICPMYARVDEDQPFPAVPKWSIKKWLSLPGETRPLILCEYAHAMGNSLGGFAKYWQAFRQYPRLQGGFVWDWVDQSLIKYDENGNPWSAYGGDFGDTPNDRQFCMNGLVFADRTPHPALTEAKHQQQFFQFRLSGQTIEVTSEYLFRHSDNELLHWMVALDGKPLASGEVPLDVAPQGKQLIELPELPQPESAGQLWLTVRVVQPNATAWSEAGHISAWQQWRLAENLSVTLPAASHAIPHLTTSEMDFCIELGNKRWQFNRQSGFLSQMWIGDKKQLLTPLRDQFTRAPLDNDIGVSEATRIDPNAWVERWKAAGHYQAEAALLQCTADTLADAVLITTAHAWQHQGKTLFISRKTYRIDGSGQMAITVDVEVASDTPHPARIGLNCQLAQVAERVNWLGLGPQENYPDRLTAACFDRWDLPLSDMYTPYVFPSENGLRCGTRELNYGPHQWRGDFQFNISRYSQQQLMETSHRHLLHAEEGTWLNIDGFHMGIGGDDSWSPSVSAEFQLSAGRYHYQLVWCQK

Turning to “2-[2-(4-Benzoyloxy-3-methoxyphenyl)-vinyl-1-methylquinolinium iodide [21e]”, the “quality as substrate for / cleavage by carboxyesterase” value (from here on “quality as substrate for / cleavage”) with carboxyesterase is listed as “readily cleaved”.
With `CCC(=O)Oc1ccc(C=C2SC(=S)NC2=O)cc1OC` [3d, n=1, 5-(4-propanoyloxy-3-methoxyphenylmethylene)-2-thioxothiazolidin-4-one], the “quality as substrate for / cleavage” value with carboxyesterase is on record as “cleaved by carboxyesterase”. The “solubility in water” value in series [1] (water) is recorded as “slightly soluble in water”.
With `COc1cc(C=C2SC(=S)N(CC(=O)O)C2=O)ccc1O[C@@H]1O[C@H](CO)[C@@H](O)[C@H](O)[C@H]1NC(C)=O` [4b], in series [2], the “quality as substrate for NAGase” value is recorded as “excellent substrate”. The Michaelis constant (Km) (as a rule, the substrate concentration at which the rate is half of its maximum) in series [2] (substrate for NAGase) was determined as 980 µM. Further, the solubility (as a rule, the dissolved amount per volume that the medium holds) in series [1] (water) is not above 10000 µM.
Take `COc1cc(C=C2SC(=S)N(CC(=O)O)C2=O)ccc1O[C@@H]1O[C@H](CO)[C@H](O)[C@H](O)[C@H]1O` [4c, Ammonium 5-[4-(β-D-galactopyranosyloxy)-3-methoxyphenyl-methylene]-2-thioxothiazolidin-4-one-3-ethanoate]: the “quality as substrate for E. Coli β-galactosidase” value on E. Coli β-galactosidase is reported as “very good substrate”. In addition, the “solubility in water” value in series [1] (water) was “easily soluble in water”.
Regarding `COc1cc(C=C2SC(=S)N(C)C2=O)ccc1OP(=O)(O)O` [9F, 5-(4-Phosphoroyloxy-3-methoxyphenylmethylene)-2-thioxo-3-methylthiazolidine-4-one], the “quality as substrate for / hydrolysis by alkaline phosphatase” value (from here on “quality as substrate for / hydrolysis”) in the series on alkaline phosphatase is “hydrolysed readily”. The “solubility in water” value in series [1] (water) is reported as “very soluble in water”.
Turning to `COc1cc(C=C2SC(=S)N(CC(=O)O)C2=O)cc(OC)c1O[C@@H]1O[C@H](CO)[C@@H](O)[C@H](O)[C@H]1NC(C)=O` [11b], the “quality as substrate for NAGase” value in series [2] was “fair substrate”. The “solubility in water” value in series [1] (water) is listed as “soluble in water”.
Regarding `COc1cc(C=C2SC(=S)N(CC(=O)O)C2=O)cc(OC)c1OC(=O)c1ccccc1` [11e], the “quality as substrate for / cleavage” value in the series with carboxyesterase was “excellent substrate”.
Same read-out and setting: the same measure for `CCC(=O)Oc1c(OC)cc(C=C2SC(=S)N(c3ccc(C(=O)O)cc3)C2=O)cc1OC` [13d, n=1, 3-(4-carboxyphenyl)-5-(3,5-dimethoxy-4-propanoyloxyphenylmethylene)-2-thioxothiazolidin-4-one]: “reacted with carboxyesterase”; for `COc1cc(C=C2SC(=S)N(c3ccc(S(=O)(=O)O)cc3)C2=O)cc(OC)c1OC(=O)c1ccccc1` [14e, Potassium 5-(4-benzoyloxy-3,5-dimethoxyphenylmethylene) -2-thioxothiazolidin-4-one-3-(phenyl-4-sulphonate)]: “hydrolysed by carboxyesterase”.
In the case of `COc1cc(N2C(=O)C(=Cc3cc(OC)c(OP(=O)(O)O)c(OC)c3)SC2=S)cc(OC)c1OC` [15f, 2-Thioxo-3-(3,4,5-trimethoxyphenyl)-5-(3,5-dimethoxy-4-phosphoroyloxyphenylmethylene)-thiazolidin-4-one], in the series with alkaline phosphatase, the “quality as substrate for / hydrolysis” value is recorded as “hydrolysed by alkaline phosphatase”. In addition, the “solubility in alkaline buffers” value in series [1] (alkaline buffers (pH 8 etc.)) is “moderately soluble”.
As to `COc1cc(C=C2SC(=S)N(C)C2=O)cc(OC)c1OP(=O)(O)O` [16f, 5-(4-Phosphoroyloxy-3,5-dimethoxyphenylmethylene)-2-thioxo-3-methylthiazolidine-4-one], the Michaelis constant (Km) in the series on alkaline phosphatase (phosphatase) turned out to be 330 µM.
As to `COc1cc(/C=C/c2cc[n+](C)cc2)ccc1O[C@@H]1O[C@H](CO)[C@H](O)[C@H](O)[C@H]1O` [19c], the “quality as substrate for E. Coli β-galactosidase” value at E. Coli β-galactosidase was “substrate”. Further, the “solubility in water” value in series [1] (water) was “fair solubility”.
Turning to `COc1cc(/C=C/c2ccc3ccccc3[n+]2C)ccc1O[C@@H]1O[C@H](CO)[C@@H](O)[C@H](O)[C@H]1NC(C)=O` [21b, 2-{2-[4-(2-Acetamido-2-deoxy-β-D-glucopyranosyloxy)-3-methoxyphenyl]-vinyl}-1-methylquinolinium iodide], the “quality as substrate for NAGase” value in series [2] is given as “substrate”.
On to `COc1cc(/C=C/c2ccc3ccccc3[n+]2C)ccc1O[C@@H]1O[C@H](CO)[C@H](O)[C@H](O)[C@H]1O` [21c, 2-{2-[4-(β-D-Galactopyranosyloxy)-3-methoxyphenyl]-vinyl}-1-methylquinolinium iodide], for which the “quality as substrate for E. Coli β-galactosidase” value at E. Coli β-galactosidase is on record as “excellent substrate”. In addition, at E. Coli β-galactosidase (setting [3]), the Km was approximately 200 µM. The “% of vmax achieved” value on E. Coli β-galactosidase (at a concentration of 0.5 mM) came to 90%. Besides, the “solubility in water” value in series [1] (water) is “very good water solubility”.
For `COc1cc(/C=C/c2ccc3ccccc3[n+]2C)cc(OC)c1O[C@@H]1O[C@H](CO)[C@H](O)[C@H](O)[C@H]1O` [22c, 2-{2-[4-(β-D-Galactopyranosyloxy)-3,5-dimethoxyphenyl]-vinyl}-1-methylquinolinium iodide], the “quality as substrate for E. Coli β-galactosidase” value at E. Coli β-galactosidase is recorded as “good a substrate”. The “solubility in water” value in series [1] (water) is “easily soluble in water”.
For `COc1cc(/C=C/c2ccc3ccccc3[n+]2C)cc(OC)c1OP(=O)(O)O` [22f, 2-[2-(4-phosphoroyloxy-3,5-dimethoxyphenyl)-vinyl]-1-methylquinolinium iodide], the “quality as substrate for / hydrolysis” value with alkaline phosphatase is “good substrate”. Further, in the series on alkaline phosphatase (at a concentration of 0.5 mM), the “% of vmax achieved” value is given as 42%. Further, the Km in the series with alkaline phosphatase (phosphatase) came out at 680 µM. The “solubility in water” value in series [1] (water) was “very soluble in water”.
Turning to `COc1cc(/C=C/c2cc[n+](C)c3ccccc23)ccc1O[C@@H]1O[C@H](CO)[C@H](O)[C@H](O)[C@H]1O` [23c, 4-{2-[4-(β-D-Galactopyranosyloxy)-3-methoxyphenyl]-vinyl}-1-methylquinolinium iodide], the “quality as substrate for E. Coli β-galactosidase” value at E. Coli β-galactosidase is reported as “excellent substrate”. Further, on E. Coli β-galactosidase (setting [3]), the Km stood at 62 µM. Besides, the “% of vmax achieved” value at E. Coli β-galactosidase (at a concentration of 0.5 mM) is reported as 95%. For the same compound, the substrate inhibition result at E. Coli β-galactosidase (at concentrations higher than 0.5 mM) is “slight substrate inhibition”. Besides, the “solubility in water” value in series [1] (water) is reported as “good water solubility”.
For `COc1cc(/C=C/c2cc[n+](C)c3ccccc23)cc(OC)c1O[C@@H]1O[C@H](CO)[C@H](O)[C@H](O)[C@H]1O` [24c, 4-{2-[4-(β-D-Galactopyranosyloxy)-3,5-dimethoxyphenyl]-vinyl}-1-methylquinolinium iodide], the “quality as substrate for E. Coli β-galactosidase” value on E. Coli β-galactosidase is “good a substrate”. For the same compound, the “solubility in water” value in series [1] (water) is on record as “easily soluble in water”.
For `CCC[n+]1ccc(/C=C/c2cc(OC)c(OP(=O)([O-])O)c(OC)c2)c2ccccc21` [25f, 4-[2-(4-Phosphoroyloxy-3,5-dimethoxyphenyl)-vinyl]-1-propylquinolinium], in the series with alkaline phosphatase, the “quality as substrate for / hydrolysis” value is reported as “excellent substrate”. Also, the Km with alkaline phosphatase (alkaline phosphatase, unit inferred) was determined as 176 µM. Also, in the series on alkaline phosphatase (at a concentration of 1 mM), the “% of vmax achieved” value is recorded as 86%. The “solubility in water” value in series [1] (water) is on record as “water soluble”.
With `COc1cc(/C=C/c2sc3ccccc3[n+]2C)ccc1O[C@@H]1O[C@H](CO)[C@H](O)[C@H](O)[C@H]1O` [26c, 2-{2-[4-(β-D-Galactopyranosyloxy)-3-methoxyphenyl]-vinyl}-3-methylbenzothiazolium tosylate], at E. Coli β-galactosidase, the “concentration above which substrate inhibition starts to show” value is listed as “above 0.7 mM”, the pH optimum was found to be 6.5 and the “quality as substrate for E. Coli β-galactosidase” value was “reacted to give an intense violet-red solution”. For the same compound, the “% of vmax achieved” value at E. Coli β-galactosidase (at a concentration of 1 mM) stood at 95%. Also, the Km at E. Coli β-galactosidase (β-D-galactosidase from E. Coli) was 230 µM. Further, the “solubility in water” value in series [1] (water) is on record as “very soluble in water”.
`CCN1C(=O)C(=Cc2ccc(OP(=O)(O)O)c(OC)c2)C(=O)N(CC)C1=S` [27f]: the “quality as substrate for / hydrolysis” value in the series on alkaline phosphatase was “cleaved by alkaline phosphatase”. Moreover, in series [1] (water), the “solubility in water” value is on record as “good solubility”.
Take `CCC(=O)Oc1c(OC)cc(C=C2C(=O)NC(=S)NC2=O)cc1OC` [28d, n=1, 4,6-dioxo-5-(4-propanoyloxy-3,5-dimethoxyphenylmethylene)-2-thioxo-1,3-diazacyclohexane]: the “quality as substrate for / cleavage” value in the series on carboxyesterase is given as “poor-to-moderate substrate”. Besides, in series [1] (water), the “solubility in water” value is recorded as “not particularly good”.
With `COc1cc(C=C2C(=O)N(c3ccc(S(=O)(=O)O)cc3)N=C2C)cc(OC)c1OC(=O)c1ccccc1` [29e, Potassium 1-(benzene-4-sulfonate)-4-(4-Benzolyloxy-3,5-dimethoxyphenylmethylene)-3-methyl-5-pyrazalone], the “quality as substrate for / cleavage” value with carboxyesterase is given as “substrate for carboxyesterase”.
The same measure, in the same setting: the same measure for `COc1cc(C=CC=C2SC(=S)N(CC(=O)O)C2=O)ccc1OC(C)=O` [compound 30, Piperidinium 5-[3-(4'-ethanoyloxy-3'-methoxyphenyl)-prop-2-enylidene]-2-thioxothiazolidin-4-one-3-ethanoate]: “hydrolysed”.
